Reference: PubChem BioAssay AID256 (DTP/NCI, 2004)
Inconclusive results and toxic doses are left out. The calls were made as follows: active = survival T/C of 150% or more; inactive = T/C below 125% in these data.

System: CD2F1 mice, L1210 leukemia ip, survival T/C
Assay: NCI In Vivo Anticancer Drug Screen. Data for tumor model L1210 Leukemia (intraperitoneal) in CD2F1 (CDF1) mice
Details: higher = longer survival
How it was run: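 Transplantable tumor in mice; compound-treated vs vehicle-treated groups. Read-out = treated/control ratio of the measured endpoint.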

[1] = endpoint: mean survival time, dose: 50.0 mg/kg/injection, schedule: Q01DX009 (ip), vehicle: saline with Tween-80
[2] = endpoint: mean survival time, dose: 100.0 mg/kg/injection, schedule: Q01DX009 (ip), vehicle: saline with Tween-80
[3] = endpoint: mean survival time, dose: 200.0 mg/kg/injection, schedule: Q01DX009 (ip), vehicle: saline with Tween-80
[4] = endpoint: mean survival time, dose: 100.0 mg/kg/injection, schedule: Q01DX001 (ip), vehicle: saline
[5] = endpoint: mean survival time, dose: 200.0 mg/kg/injection, schedule: Q01DX001 (ip), vehicle: saline
[6] = endpoint: mean survival time, dose: 100.0 mg/kg/injection, schedule: Q04DX003 (ip), vehicle: saline with Tween-80
[7] = endpoint: mean survival time, dose: 200.0 mg/kg/injection, schedule: Q04DX003 (ip), vehicle: saline with Tween-80
[8] = endpoint: mean survival time, dose: 400.0 mg/kg/injection, schedule: Q04DX003 (ip), vehicle: saline with Tween-80
[9] = endpoint: mean survival time, dose: 25.0 mg/kg/injection, schedule: Q01DX009 (ip), vehicle: saline with Tween-80

Measured: T/C

CCN(CC)CCCNc1c2ccc(Cl)cc2nc2ccc(OC)nc12
inactive: [1] 109 % of control | [2] 97 % of control | [3] 114 % of control

CC1(C)C=CS1(=O)=O
inactive: endpoint: mean survival time, dose: 50.0 mg/kg/injection, schedule: Q04DX003 (ip), vehicle: saline 98 % of control | [4] 103 % of control | endpoint: mean survival time, dose: 100.0 mg/kg/injection, schedule: Q04DX003 (ip), vehicle: saline 96 % of control | [5] 102 % of control | endpoint: mean survival time, dose: 200.0 mg/kg/injection, schedule: Q04DX003 (ip), vehicle: saline 101 % of control

CC(C)(C)CC(C)(C)c1ccc(OCCOc2ccc(NS(=O)(=O)c3ccc(N)cc3)cc2)cc1
inactive: endpoint: mean survival time, dose: 100.0 mg/kg/injection, schedule: Q01DX009 (ip), vehicle: Klucel (hydroxypropylcellulose) (HPC) 95 % of control | [6] 97 % of control | endpoint: mean survival time, dose: 200.0 mg/kg/injection, schedule: Q01DX009 (ip), vehicle: Klucel (hydroxypropylcellulose) (HPC) 96 % of control | [7] 97 % of control | endpoint: mean survival time, dose: 400.0 mg/kg/injection, schedule: Q01DX009 (ip), vehicle: Klucel (hydroxypropylcellulose) (HPC) 93 % of control | [8] 95 % of control

CN=S(=O)(OCCCCCOS(=O)(=NC)c1ccccc1)c1ccccc1 (configuration not stated)
inactive: endpoint: mean survival time, dose: 12.5 mg/kg/injection, schedule: Q01DX009 (ip), vehicle: saline with Tween-80 103 % of control | [9] 106 % of control | [1] 103 % of control | [2] 106 % of control

CC(=O)OCc1c(Cl)ccc(Cl)c1Cl
inactive: [2] 98 % of control | endpoint: mean survival time, dose: 100.0 mg/kg/injection, schedule: Q04DX003 (ip), vehicle: saline sonified 107 % of control | [3] 100 % of control | endpoint: mean survival time, dose: 200.0 mg/kg/injection, schedule: Q04DX003 (ip), vehicle: saline sonified 96 % of control | endpoint: mean survival time, dose: 400.0 mg/kg/injection, schedule: Q01DX009 (ip), vehicle: saline with Tween-80 100 % of control | endpoint: mean survival time, dose: 400.0 mg/kg/injection, schedule: Q04DX003 (ip), vehicle: saline sonified 96 % of control

NC(=N\O)/C(N)=N/O.[Cl][Pt][Cl]
inactive: endpoint: median survival time, dose: 3.12 mg/kg/injection, schedule: Q04DX003 (ip), vehicle: saline 100 % of control | endpoint: median survival time, dose: 6.25 mg/kg/injection, schedule: Q04DX003 (ip), vehicle: saline 103 % of control | endpoint: median survival time, dose: 12.5 mg/kg/injection, schedule: Q04DX003 (ip), vehicle: saline 97 % of control | endpoint: median survival time, dose: 25.0 mg/kg/injection, schedule: Q04DX003 (ip), vehicle: saline 103 % of control | endpoint: median survival time, dose: 50.0 mg/kg/injection, schedule: Q04DX003 (ip), vehicle: saline 109 % of control | endpoint: median survival time, dose: 100.0 mg/kg/injection, schedule: Q04DX003 (ip), vehicle: saline 112 % of control | endpoint: median survival time, dose: 200.0 mg/kg/injection, schedule: Q04DX003 (ip), vehicle: saline 123 % of control

O=C1/C(=C/c2ccccc2)CCC/C1=C\c1ccccc1
inactive: [9] 94 % of control | [1] 94 % of control | [2] 89 % of control

Nc1cc(=O)c2nnn(C3OC(CO)C(O)C3O)c2[nH]1 (configuration not stated)
inactive: endpoint: mean survival time, dose: 12.5 mg/kg/injection, schedule: Q01DX005 (ip), vehicle: water 102 % of control | endpoint: mean survival time, dose: 25.0 mg/kg/injection, schedule: Q01DX005 (ip), vehicle: water 98 % of control | endpoint: mean survival time, dose: 50.0 mg/kg/injection, schedule: Q01DX005 (ip), vehicle: water 94 % of control | endpoint: mean survival time, dose: 100.0 mg/kg/injection, schedule: Q01DX005 (ip), vehicle: water 87 % of control | endpoint: mean survival time, dose: 200.0 mg/kg/injection, schedule: Q01DX005 (ip), vehicle: water 105 % of control | endpoint: mean survival time, dose: 400.0 mg/kg/injection, schedule: Q01DX005 (ip), vehicle: water 90 % of control

CN(C)CC(CN(C)C)C(=O)O
inactive: endpoint: mean survival time, dose: 50.0 mg/kg/injection, schedule: Q01DX001 (ip), vehicle: saline 103 % of control | [4] 104 % of control | [5] 108 % of control

COc1cc2c(cc1OC)C1CC(=O)C(CC(C)C)CN1CC2 (configuration not stated)
inactive: [6] 96 % of control | [7] 88 % of control | [8] 100 % of control

CCCCCC(C)NCCO (configuration not stated)
inactive: endpoint: mean survival time, dose: 75.0 mg/kg/injection, schedule: Q01DX001 (ip), vehicle: saline 98 % of control
